Laboratory results as given in PubChem BioAssay AID1259407 (Chemical Carcinogenesis Research Information System (CCRIS), 2018).
Calls of active or inactive are those of the source. The rule behind the calls is not given here.

Tested on: CCRIS mutagenicity, Ames/micronucleus/aberration tests
Experiment: CCRIS mutagenicity studies
Details: Test System: Ames Salmonella typhimurium, Method: Preincubation

Measured: mutagenic call

CCCCNC(=O)c1cc(N)ccc1Oc1ccccc1
inactive: Strain/Indicator: TA98, Metabolic Activation: None inactive; negative. data for this compound, pa10, mentioned in abstract only. | Strain/Indicator: TA98, Metabolic Activation: Rat, Liver, S-9, Phenobarbital and beta-naphthoflavone inactive; negative. this compound, pa10, converted by s-9 to a hydroxy derivative. | Strain/Indicator: TA100, Metabolic Activation: None inactive; negative. data for this compound, pa10, mentioned in abstract only. | Strain/Indicator: TA100, Metabolic Activation: Rat, Liver, S-9, Phenobarbital and beta-naphthoflavone inactive; negative. this compound, pa10, converted by s-9 to a hydroxy derivative. | Strain/Indicator: TA102, Metabolic Activation: None inactive; negative. data for this compound, pa10, mentioned in abstract only. | Strain/Indicator: TA1535, Metabolic Activation: None inactive; negative. data for this compound, pa10, mentioned in abstract only. | Strain/Indicator: TA1537, Metabolic Activation: None inactive; negative. data for this compound, pa10, mentioned in abstract only.
